In patent US20100184786A1, “Polar Quinazolines” (Wyeth LLC, priority 2008, published 2010) one finds IC50, EC50 and Emax data, which are given here for 21 molecules.

Assay [1] concerns the target T1, human LXRβ (Homo sapiens, UniProt P55055).
T1 construct: biotin (biotinylated); made in house; host or cells: E. coli
T1 sequence (P55055 1-460): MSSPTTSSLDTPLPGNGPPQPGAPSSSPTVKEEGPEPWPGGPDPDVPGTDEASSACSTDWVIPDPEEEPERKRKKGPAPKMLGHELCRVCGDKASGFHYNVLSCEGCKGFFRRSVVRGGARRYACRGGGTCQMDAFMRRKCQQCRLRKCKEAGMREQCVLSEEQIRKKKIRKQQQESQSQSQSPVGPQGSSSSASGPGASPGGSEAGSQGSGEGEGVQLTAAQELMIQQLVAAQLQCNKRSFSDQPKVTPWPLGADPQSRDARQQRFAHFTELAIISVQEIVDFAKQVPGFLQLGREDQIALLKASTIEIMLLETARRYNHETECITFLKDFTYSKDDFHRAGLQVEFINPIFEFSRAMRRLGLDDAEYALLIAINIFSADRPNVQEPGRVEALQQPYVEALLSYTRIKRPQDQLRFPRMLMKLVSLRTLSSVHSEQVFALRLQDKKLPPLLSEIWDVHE
In words: Ligand-binding test procedure for human LXRβ (3H T0901317 tracer, flash plates). The following applies: competition with 3H T0901317; read-out: hLXRb binding IC50. Here is the method:
I. Ligand-Binding Test Procedure for Human LXRβ.
• Buffer: 100 mM KCl, 100 mM TRIS (pH 7.4 at +4° C.), 8.6% glycerol, 0.1 mM PMSF*, 2 mM MTG*, 0.2% CHAPS (* not used in wash buffer) • Tracer: ^3H T0901317 • Receptor source: E. coli extracted from cells expressing biotinylated hLXRβ. Extract was made in a similar buffer as above, but with 50 mM TRIS.
• Washed streptavidin and coated flash plates with wash buffer. • Diluted receptor extract to give Bmax˜4000 cpm and add to the wells. • Wrapped the plates in aluminum foil and stored them at +4° C. overnight.
(§1) • Made a dilution series in DMSO of the test ligands. • Made a 5 nM solution of the radioactive tracer in buffer. • Mixed 2500 diluted tracer with 50 of the test ligand from each concentration of the dilution series. • Washed the receptor-coated flash plates. • Added 2000 per well of the ligand/radiolabel mixture to the receptor-coated flash plates. • Wrapped the plates in aluminum foil and incubate at +4° C. over night.
• Aspirated wells, and washed the flashed plates. Sealed the plate. • Measured the remaining radioactivity in the plate.

Assay [2] has as its target T2, human LXRα (Homo sapiens, UniProt Q13133).
T2 construct: biotin (biotinylated); made in house; host or cells: E. coli
T2 sequence (Q13133 1-447): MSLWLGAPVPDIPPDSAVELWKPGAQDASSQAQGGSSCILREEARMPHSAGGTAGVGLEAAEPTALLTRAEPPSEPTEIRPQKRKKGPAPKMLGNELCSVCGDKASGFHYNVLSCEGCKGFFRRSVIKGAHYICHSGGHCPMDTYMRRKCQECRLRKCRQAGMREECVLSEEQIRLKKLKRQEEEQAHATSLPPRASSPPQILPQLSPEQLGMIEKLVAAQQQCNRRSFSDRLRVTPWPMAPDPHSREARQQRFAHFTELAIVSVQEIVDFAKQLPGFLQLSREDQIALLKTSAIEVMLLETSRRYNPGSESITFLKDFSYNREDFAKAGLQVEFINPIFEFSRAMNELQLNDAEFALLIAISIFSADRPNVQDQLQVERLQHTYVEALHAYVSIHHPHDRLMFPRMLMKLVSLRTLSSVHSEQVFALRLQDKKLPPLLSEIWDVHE
Put plainly: Ligand-binding test procedure for human LXRα (3H T0901317 tracer, flash plates). The settings on record: competition with 3H T0901317; read-out: hLXRa binding IC50. Here is the method:
II. Ligand-Binding Test Procedure for Human LXRa.
• Buffer: 100 mM KCl, 100 mM TRIS (pH 7.4 at +4° C.), 8.6% glycerol, 0.1 mM PMSF*, 2 mM MTG*, 0.2% CHAPS (* not used in wash buffer) • Tracer: ^3H T0901317 • Receptor source: E. coli extract from cells expressing biotinylated hLXRα. Extract was made in a similar buffer as above, but with 50 mM TRIS.
• Washed streptavidin and coated flash plates with wash buffer. • Diluted receptor extract to give Bmax˜4000 cpm and add to the wells. • Wrapped the plates in aluminum foil and stored them at +4° C. over night.
as §1
• Aspirated wells, and wash the flashed plates. Sealed the plate. • Measured the remaining radioactivity in the plate.

Assay [3] has as its system ABCA1 gene. Put plainly: Gene regulation by LXR (murine): ABCA1 gene regulation, mRNA by real-time PCR. Type of assay: cell-based. The settings on record: Mus musculus; for Emax: read-out: Agonism ABCA1.

Molecules are shown by their SMILES.

For `CNS(=O)(=O)c1cccc(Oc2ccc(Cl)c(-c3ncnc4c(C(F)(F)F)cccc34)c2)c1` [Example 18], the IC50 (in general, the point on the concentration scale where inhibition reaches its midpoint) in assay [1] amounted to 4 nM. In addition, the IC50 in assay [2] was 81 nM. Further, in assay [3], it took 85 nM to reach a half-maximal effect (EC50) and the Emax was 94%.

Consider `NS(=O)(=O)c1cccc(Oc2ccc(Cl)c(-c3ncnc4c(C(F)(F)F)cccc34)c2)c1` [Example 19, 3-{4-chloro-3-[8-(trifluoromethyl)quinazolin-4-yl]phenoxy}benzenesulfonamide], for which, in assay [1], the IC50 amounted to 49 nM. The IC50 in assay [2] was determined as 581 nM. In assay [3], a half-maximal effect (EC50) was put at 220 nM and the Emax came out at 95%.

On to `NS(=O)(=O)c1cccc(Oc2ccc(F)c(-c3ncnc4c(C(F)(F)F)cccc34)c2)c1` [Example 21, 3-{4-fluoro-3-[8-(trifluoromethyl)quinazolin-4-yl]phenoxy}benzenesulfonamide], for which the figures for the IC50 in assay [1] and in assay [2] were 121 nM and 1010 nM, respectively. The response in assay [3] was half-maximal at 650 nM (EC50). The Emax in assay [3] worked out at 68%.

On to `N#CCCCS(=O)(=O)c1cccc(Oc2ccc(Cl)c(-c3ncnc4c(Cl)cccc34)c2)c1` [Example 4, 4-({3-[4-chloro-3-(8-chloroquinazolin-4-yl)phenoxy]phenyl}sulfonyl)butanenitrile], for which the IC50 in assay [1] was determined as 105 nM. For the same molecule, the IC50 in assay [2] stood at 1810 nM. In assay [3], the 50% effective concentration (EC50) (in general, the concentration that produces a half-maximal response) was determined as 4340 nM and the Emax amounted to 48%.

As to `N#CCCCCS(=O)(=O)c1cccc(Oc2ccc(F)c(-c3ncnc4c(Cl)cccc34)c2)c1` [Example 52, 5-({3-[3-(8-chloroquinazolin-4-yl)-4-fluorophenoxy]phenyl}sulfonyl)pentanenitrile], the IC50 in assay [1] came to 107 nM. The IC50 in assay [2] stood at 2030 nM. In assay [3], the response was half-maximal at 1800 nM (EC50) and the Emax was 74%.

Consider `NCCCS(=O)(=O)c1cccc(Oc2ccc(F)c(-c3ncnc4c(C(F)(F)F)cccc34)c2)c1` [Example 28, 3-[(3-{4-fluoro-3-[8-(trifluoromethyl)quinazolin-4-yl]phenoxy}phenyl)sulfonyl]propan-1-amine], for which the values for the IC50 in assay [1] and in assay [2] were 116 nM and 2990 nM, respectively. Also, in assay [3], the Emax was found to be 3%.

Consider `CNS(=O)(=O)c1cccc(Oc2ccc(F)c(-c3ncnc4c(Cl)cccc34)c2)c1` [Example 23, 3-[3-(8-chloroquinazolin-4-yl)-4-fluorophenoxy]-N-methylbenzenesulfonamide], for which the IC50 in assay [1] was 17 nM. Moreover, the IC50 in assay [2] turned out to be 33 nM. Also, in assay [3], the EC50 came out at 450 nM and the Emax came to 85%.

With `O=C(O)CS(=O)(=O)c1cccc(Oc2ccc(Cl)c(-c3ncnc4c(C(F)(F)F)cccc34)c2)c1` [Example 15, [(3-{4-chloro-3-[8-(trifluoromethyl)quinazolin-4-yl]phenoxy}phenyl)sulfonyl]acetic acid], the IC50 in assay [1] amounted to 19 nM. In addition, the IC50 in assay [2] turned out to be 1010 nM. Moreover, in assay [3], the EC50 came to 2920 nM and the Emax came to 51%.

In the case of `NS(=O)(=O)c1cccc(Oc2ccc(Cl)c(-c3ncnc4c(Cl)cccc34)c2)c1` [Example 17, 3-[4-chloro-3-(8-chloroquinazolin-4-yl)phenoxy]benzenesulfonamide], the IC50 in assay [1] is 151 nM. Also, the IC50 in assay [2] came to 1710 nM. For the same molecule, in assay [3], the midpoint of the response, the EC50, lay at 1480 nM and the Emax worked out at 74%.

Regarding `CS(=O)(=O)CCCS(=O)(=O)c1cccc(Oc2ccc(F)c(-c3ncnc4c(C(F)(F)F)cccc34)c2)c1` [Example 32, 4-[2-fluoro-5-(3-{[3-(methylsulfonyl)propyl]sulfonyl}phenoxy)phenyl]-8-(trifluoromethyl)-quinazoline], the 50% inhibitory concentration (IC50) in assay [1] stood at 59 nM. Further, the IC50 in assay [2] stood at 660 nM. Further, in assay [3], the EC50 is 1010 nM and the Emax is 78%.

Regarding `NC(=O)CCCS(=O)(=O)c1cccc(Oc2ccc(Cl)c(-c3ncnc4c(Cl)cccc34)c2)c1` [Example 8, 4-({3-[4-chloro-3-(8-chloroquinazolin-4-yl)phenoxy]phenyl}sulfonyl)butanamide], the IC50 in assay [1] worked out at 126 nM. Besides, the IC50 in assay [2] came to 1310 nM. Besides, in assay [3], the EC50 was determined as 2170 nM and the Emax turned out to be 74%.

With `NC(=O)CCCCS(=O)(=O)c1cccc(Oc2ccc(F)c(-c3ncnc4c(Cl)cccc34)c2)c1` [Example 53, 5-({3-[3-(8-chloroquinazolin-4-yl)-4-fluorophenoxy]phenyl}sulfonyl)pentanamide], the results for the IC50 in assay [1] and in assay [2] were 324 nM and 232000 nM, respectively.

On to `NS(=O)(=O)c1cccc(Oc2ccc(F)c(-c3ncnc4c(Cl)cccc34)c2)c1` [Example 20, 3-[3-(8-chloroquinazolin-4-yl)-4-fluorophenoxy]benzenesulfonamide], for which the half-inhibitory concentration (IC50) was 336 nM in assay [1] and 2880 nM in assay [2].

As for `N#CCS(=O)(=O)c1cccc(Oc2ccc(F)c(-c3ncnc4c(Cl)cccc34)c2)c1` [Example 10, ({3-[3-(8-chloroquinazolin-4-yl)-4-fluorophenoxy]phenyl}sulfonyl)acetonitrile], the IC50 in assay [1] is 286 nM; in assay [2], 1530 nM.

In the case of `CNCCCS(=O)(=O)c1cccc(Oc2ccc(F)c(-c3ncnc4c(Cl)cccc34)c2)c1` [Example 44, 3-({3-[3-(8-chloroquinazolin-4-yl)-4-fluorophenoxy]phenyl}sulfonyl)-N-methylpropan-1-amine], the IC50 amounted to 965 nM in assay [1] and 7310 nM in assay [2].

Consider `O=C(O)CCCS(=O)(=O)c1cccc(Oc2ccc(F)c(-c3ncnc4c(C(F)(F)F)cccc34)c2)c1` [Example 27, 4-[(3-{4-fluoro-3-[8-(trifluoromethyl)quinazolin-4-yl]phenoxy}phenyl)sulfonyl]butanoic acid], for which the IC50 came to 1200 nM in assay [1] and 16700 nM in assay [2].

With `CS(=O)(=O)NCCCCS(=O)(=O)c1cccc(Oc2ccc(F)c(-c3ncnc4c(Cl)cccc34)c2)c1` [Example 51, N-[4-({3-[3-(8-chloroquinazolin-4-yl)-4-fluorophenoxy]phenyl}sulfonyl)butyl]methane-sulfonamide], the results for the IC50 in assay [1] and in assay [2] were 444 nM and 4890 nM, respectively.

For the molecule `CS(=O)(=O)c1cc(Oc2ccc(F)c(-c3ncnc4c(C(F)(F)F)cccc34)c2)ccc1C(N)=O` [Example 39, 4-{4-fluoro-3-[8-(trifluoromethyl)quinazolin-4-yl]phenoxy}-2-(methylsulfonyl)benzamide], the IC50 in assay [1] came to 1210 nM; in assay [2], 4370 nM.

For `O=C(O)CCCCS(=O)(=O)c1cccc(Oc2ccc(F)c(-c3ncnc4c(C(F)(F)F)cccc34)c2)c1` [Example 34, 5-[(3-{4-fluoro-3-[8-(trifluoromethyl)quinazolin-4-yl]phenoxy}phenyl)sulfonyl]pentanoic acid], the IC50 was found to be 1430 nM in assay [1] and 11900 nM in assay [2].

As to `N#CCCCS(=O)(=O)c1cccc(Oc2ccc(F)c(-c3ncnc4c(Cl)cccc34)c2)c1` [Example 47, 4-({3-[3-(8-chloroquinazolin-4-yl)-4-fluorophenoxy]phenyl}sulfonyl)butanenitrile], the values for the IC50 in assay [1] and in assay [2] were 274 nM and 3980 nM, respectively.

On to `NCCCS(=O)(=O)c1cccc(Oc2ccc(F)c(-c3ncnc4c(Cl)cccc34)c2)c1` [Example 46, 3-({3-[3-(8-chloroquinazolin-4-yl)-4-fluorophenoxy]phenyl}sulfonyl)propan-1-amine], for which the results for the IC50 in assay [1] and in assay [2] were 296 nM and 8180 nM, respectively.
